Test results reported in US11332485B2, “Penicillin-binding protein inhibitors” (priority 2017, dated 2022).
Where two headings read alike, the source gives them in different places.

Legend:
[1] = target: T1, PBP3 from Escherichia coli (Escherichia coli, UniProt P0AD68); test: Fluorescence polarization competition binding assay with Bocillin-FL
T1 construct: made in house
Text: To determine the ability of boronic acid-based test PBP inhibitors to bind Penicillin Binding Proteins (PBPs), Bocillin-FL (fluorescently-labeled penicillin V; ThermoFisher Scientific) was used in a fluorescence polarization (FP) competition binding assay to assess boronic acid PBP inhibitor binding to PBP3 from Escherichia coli. PBP3 from Escherichia coli was cloned and purified as described previously (King, D. T, et al., ACS Infectious Diseases 2015, 1, 175-184). To establish assay conditions for competition binding, an enzyme titration/saturation binding experiment was performed. Bocillin-FL was prepared at […] in a buffer comprised of 50 mM Hepes (pH 8.0), 300 mM NaCl and 5% (v/v) glycerol. Saturation binding was performed by mixing […] of PBP3 ranging in concentrations from […] with 40 μl of the 0.2 μM Bocillin-FL solution, in individual wells of a black 384-well microplate. FP was measured immediately upon addition of PBP3 (Ex, Em), using a Cytation3 (BioTek) microplate reader and measured continuously for 60 minutes. […] The competition binding assay was validated using the beta-lactam ampicillin, with Bocillin-FL at a final concentration of 0.1 μM, PBP3 at a final concentration of 1.5 μM and concentrations of ampicillin from 0-1000 μM. PBP3 was incubated with ampicillin at different concentrations in a black 384-well microplate (Corning) for 30 minutes, then Bocillin-FL added and the FP immediately measured for 60 minutes. […] Binding assays for boronic acid PBP inhibitors were performed in an identical fashion. Representative results are shown in Table 3, where A represents a potency of >500 μM, B represents a potency between 30 μM and 500 μM inclusive, and C represents a potency of <30 μM. NT=Not Tested.

[2] = system: hyper-permeable E. coli 901C; test: Broth microdilution MIC assay; format: cell-based; conditions: Escherichia coli, read-out: E. coli 901C MIC
Outline: (§1)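 CLSI broth microdilution in cation-supplemented Mueller-Hinton broth; 2-fold serial compound dilutions inoculated at 5×10^5 CFU/mL from 3-5 h log-phase cultures. Plates incubated 16-20 hours at 37° C. MIC read visually as lowest concentration with no bacterial growth.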

[3] = system: S. aureus ATCC 29213; test: Broth microdilution MIC assay; format: cell-based; conditions: Staphylococcus aureus, ATCC29213; broth microdilution, 16-20 hours at 37° C.; read-out: S. aureus 29213 MIC
Outline: as §1

[4] = system: E. coli DH5α/pLBII-CTX-M15; test: Broth microdilution MIC assay, engineered strain producing CTX-M15; format: cell-based, Escherichia coli; conditions: Escherichia coli, read-out: E. coli DH5α/pLBII-CTX-M15 Microbiological Activity (MIC)
Outline: (§2)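 CLSI broth microdilution in cation-supplemented Mueller-Hinton broth, 2-fold compound dilutions, 5×10^5 CFU/mL inoculum, 16-20 h at 37° C, MIC read visually as lowest concentration without growth. E. coli DH5α carries CTX-M15 on pLBII under Lac promoter, or empty pLBII as control.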

[5] = target: T2, PBP1a from Escherichia coli (Escherichia coli, UniProt P02918); test: Radioligand competition binding assay with 14C-labeled boronic acid probe (Example 96); conditions: PBP 0.1 μM
T2 construct: made in house
Text: To determine the ability of boronic acid-based test PBP inhibitors to bind Penicillin Binding Proteins (PBPs), a radio-labelled boronic acid PBP inhibitor (Example 96) was used in competition binding assays to determine boronic acid PBP inhibitor binding to PBP1a or PBP1b from Escherichia coli. PBP1a and PBP1b were purified as described previously (Bertsche, U.; et al., J. Biol. Chem. 2005, 280 (45), 38096-38101; Born, P.; et al., J Biol. Chem. 2006. 281 (37), 26985-26993). To establish assay conditions for competition binding, an enzyme titration/saturation binding experiment was performed. Saturation binding was performed in a buffer comprised of 20 mM Tris (pH 7.5), 500 mM NaCl and 0.1% (v/v) TritonX-100, with PBP1a/PBP1b at a final concentration of 0.1 μM and 96 at final concentrations ranging from 0-100 μM. Mixtures were incubated for 60 minutes, then applied to Zeba Spin Desalting columns or plates (ThermoFisher Scientific) and centrifuged at 1000-1500×g for 2 minutes. The flow through, containing PBP bound with 96, was recovered and 100 μL mixed with 5 mL of UltimaGold liquid scintillation cocktail (Perkin Elmer), and the radioactivity counted using a Beckman Coulter LS 6500 Multipurpose scintillation counter. PBP binding of 96 approached saturation at 20 μM of ^14C-labeled probe. The competition binding assay was validated using the beta-lactam ampicillin, with 96 at a final concentration of 20 μM, PBP1a/PBP1b at a final concentration of 0.1 μM. PBP1a/PBP1b was incubated with ampicillin in a 96-well microplate for 60 minutes, then 96 was added and the mixtures incubated for an additional 60 minutes. The mixtures were then applied to Zeba Spin desalting plates and centrifuged at 1000×g for 2 minutes. The flow through was recovered and 100 μl mixed with 5 ml of UltimaGold liquid scintillation cocktail and the radioactivity counted. Ampicillin inhibited binding of 96 with an EC50 (the concentration of inhibitor required to reduce binding of 96 by 50%) of less than 0.5 μM. Binding assays with boronic acid PBP inhibitors were performed in an identical fashion. The potency of boronic acid PBP inhibitors was reported as the EC50 value.
Representative results are shown in Table 5, where A represents a potency of >100 μM, B represents a potency between 10 μM and 100 μM inclusive, and C represents a potency of <10 μM. NT=Not Tested.

[6] = system: E. coli DH5α/pLBII; test: Broth microdilution MIC assay, empty vector control strain; format: cell-based; conditions: Escherichia coli, read-out: E. coli DH5α/pLBII Microbiological Activity (MIC)
Outline: as §2

[7] = 14C-labeled probe 96 at 20 μM, read-out: E. coli K12 PBP1a EC50
[8] = E. coli K12 PBP1a EC50, 14C-labeled probe 96 at 20 μM

T2 sequence (P02918 whole entry): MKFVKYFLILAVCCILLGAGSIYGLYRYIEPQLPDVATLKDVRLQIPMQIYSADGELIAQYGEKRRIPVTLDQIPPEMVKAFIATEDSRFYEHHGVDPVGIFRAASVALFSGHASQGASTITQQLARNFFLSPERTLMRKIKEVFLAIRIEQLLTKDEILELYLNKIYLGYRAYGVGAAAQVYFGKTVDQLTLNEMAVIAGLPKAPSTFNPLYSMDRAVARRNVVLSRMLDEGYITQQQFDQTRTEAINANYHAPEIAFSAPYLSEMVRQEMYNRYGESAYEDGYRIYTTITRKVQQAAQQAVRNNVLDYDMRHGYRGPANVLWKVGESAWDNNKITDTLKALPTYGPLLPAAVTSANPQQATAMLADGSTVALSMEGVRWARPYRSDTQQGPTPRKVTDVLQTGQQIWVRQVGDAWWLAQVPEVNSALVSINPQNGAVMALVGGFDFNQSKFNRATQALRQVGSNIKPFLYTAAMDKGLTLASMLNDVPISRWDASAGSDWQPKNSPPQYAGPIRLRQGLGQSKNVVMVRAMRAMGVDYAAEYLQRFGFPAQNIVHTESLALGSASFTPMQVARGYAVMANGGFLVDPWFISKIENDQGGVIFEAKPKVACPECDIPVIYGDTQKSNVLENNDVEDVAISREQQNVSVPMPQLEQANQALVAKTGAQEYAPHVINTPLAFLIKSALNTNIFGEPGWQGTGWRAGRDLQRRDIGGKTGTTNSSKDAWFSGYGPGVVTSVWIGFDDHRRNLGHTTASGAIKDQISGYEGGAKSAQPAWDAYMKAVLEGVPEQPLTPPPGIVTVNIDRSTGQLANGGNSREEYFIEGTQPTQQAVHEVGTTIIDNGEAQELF
T1 sequence (P0AD68 1-577): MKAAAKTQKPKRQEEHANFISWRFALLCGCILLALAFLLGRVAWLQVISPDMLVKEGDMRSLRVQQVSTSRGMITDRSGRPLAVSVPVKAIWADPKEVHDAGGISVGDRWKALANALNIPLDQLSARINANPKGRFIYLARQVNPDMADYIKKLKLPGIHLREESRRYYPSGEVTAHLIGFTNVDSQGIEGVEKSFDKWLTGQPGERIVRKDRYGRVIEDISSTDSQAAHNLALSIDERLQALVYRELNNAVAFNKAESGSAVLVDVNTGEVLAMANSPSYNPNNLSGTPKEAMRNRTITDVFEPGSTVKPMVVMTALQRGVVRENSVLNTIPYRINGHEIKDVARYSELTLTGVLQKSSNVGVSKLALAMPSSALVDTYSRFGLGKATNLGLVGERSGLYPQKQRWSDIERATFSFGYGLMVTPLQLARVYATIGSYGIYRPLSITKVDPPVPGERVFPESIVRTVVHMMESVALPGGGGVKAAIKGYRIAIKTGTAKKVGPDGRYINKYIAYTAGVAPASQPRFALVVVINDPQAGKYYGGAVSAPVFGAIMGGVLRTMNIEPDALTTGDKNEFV

| SMILES | EC50 [1] [µM] | MIC [2] [µg/mL] | MIC [3] [µg/mL] | MIC [4] [µg/mL] | EC50 [5, 7] [µM] | MIC [6] [µg/mL] | EC50 [5, 8] [µM] |
| --- | --- | --- | --- | --- | --- | --- | --- |
| CCN1CCN(C(=O)N[C@@H](C(=O)N[C@H]2Cc3cccc(C(=O)O)c3OB2O)C(C)(C)C)C(=O)C1=O [Example 85, (R)-3-((R)-2-(4-ethyl-2,3-dioxopiperazine-1-carboxamido)-3,3-dimethylbutanamido)-2-hydroxy-3,4-dihydro-2H-benzo[e][1,2]oxaborinine-8-carboxylic acid] | < 30 | < 64 | > 128 | 128 to 256 | < 10 | – | – |
| CCN1CCN(C(=O)N[C@@H](C(=O)N[C@H]2Cc3cccc(C(=O)O)c3OB2O)[C@H](C)O)C(=O)C1=O [Example 47, (R)-3-((2R,3S)-2-(4-Ethyl-2,3-dioxopiperazine-1-carboxamido)-3-hydroxy-butanamido)-2-hydroxy-3,4-dihydro-2H-benzo[e][1,2]oxaborinine-8-carboxylic acid] | > 500 | < 64 | > 128 | 8 to 16 | < 10 | 8 to 16 | – |
| CCN1CCN(C(=O)NC(C(=O)N[C@H]2Cc3cc(O)cc(C(=O)O)c3OB2O)c2csc(N)n2)C(=O)C1=O (stereo partly drawn) [Example 39, (3R)-3-(2-(2-aminothiazol-4-yl)-2-(4-ethyl-2,3-dioxopiperazine-1-carboxamido)acetamido)-2,6-dihydroxy-3,4-dihydro-2H-benzo[e][1,2]oxaborinine-8-carboxylic acid] | 30 to 500 | < 64 | > 128 | 32 to 64 | – | 32 to 64 | 10 to 100 |
| Nc1nc(C(NC(=O)N2CCS(=O)(=O)CC2)C(=O)N[C@H]2Cc3cccc(C(=O)O)c3OB2O)cs1 (stereo partly drawn) [Example 65, (3R)-3-(2-(2-aminothiazol-4-yl)-2-(1,1-dioxidothiomorpholine-4-carboxamido)acetamido)-2-hydroxy-3,4-dihydro-2H-benzo[e][1,2]oxaborinine-8-carboxylic acid] | 30 to 500 | < 64 | 64 to 128 | 32 to 64 | – | 32 to 64 | < 10 |
| CCN1CCN(CC(=O)NC(C(=O)N[C@H]2Cc3cccc(C(=O)O)c3OB2O)c2csc(N)n2)C(=O)C1=O (stereo partly drawn) [Example 45, (3R)-3-(2-(2-aminothiazol-4-yl)-2-(2-(4-ethyl-2,3-dioxopiperazin-1-yl)acetamido)acetamido)-2-hydroxy-3,4-dihydro-2H-benzo[e][1,2]oxaborinine-8-carboxylic acid] | 30 to 500 | < 64 | > 128 | 32 to 64 | < 10 | 32 to 64 | – |
| Nc1nc(C(NC(=O)N2CCNC2=O)C(=O)N[C@H]2Cc3cccc(C(=O)O)c3OB2O)cs1 (stereo partly drawn) [Example 19, (3R)-3-(2-(2-aminothiazol-4-yl)-2-(2-oxoimidazolidine-1-carboxamido)acetamido)-2-hydroxy-3,4-dihydro-2H-benzo[e][1,2]oxaborinine-8-carboxylic acid] | 30 to 500 | < 64 | 64 to 128 | 32 to 64 | < 10 | 32 to 64 | – |
| CCN1CCN(C(=O)N[C@@H](C(=O)N[C@H]2Cc3cccc(C(=O)O)c3OB2O)[C@@H](C)O)C(=O)C1=O [Example 48, (R)-3-((2R,3R)-2-(4-Ethyl-2,3-dioxopiperazine-1-carboxamido)-3-hydroxy-butanamido)-2-hydroxy-3,4-dihydro-2H-benzo[e][1,2]oxaborinine-8-carboxylic acid] | 30 to 500 | < 64 | > 128 | 8 to 16 | < 10 | 8 to 16 | – |
| Nc1nc(C(NC(=O)N2CCN(C3CC3)C(=O)C2=O)C(=O)N[C@H]2Cc3cccc(C(=O)O)c3OB2O)cs1 (stereo partly drawn) [Example 44, (3R)-3-(2-(2-aminothiazol-4-yl)-2-(4-cyclopropyl-2,3-dioxopiperazine-1-carboxamido)acetamido)-2-hydroxy-3,4-dihydro-2H-benzo[e][1,2]oxaborinine-8-carboxylic acid] | 30 to 500 | < 64 | 64 to 128 | 32 to 64 | < 10 | 32 to 64 | – |
| Nc1nc(C(=O)NC(C(=O)N[C@H]2Cc3cccc(C(=O)O)c3OB2O)c2csc(N)n2)cs1 (stereo partly drawn) [Example 17, (3R)-3-(2-(2-aminothiazol-4-yl)-2-(2-aminothiazole-4-carboxamido)acetamido)-2-hydroxy-3,4-dihydro-2H-benzo[e][1,2]oxaborinine-8-carboxylic acid] | 30 to 500 | < 64 | < 64 | 32 to 64 | > 100 | 32 to 64 | – |
| CCC(O)[C@@H](NC(=O)N1CCN(CC)C(=O)C1=O)C(=O)N[C@H]1Cc2cccc(C(=O)O)c2OB1O (single isomer, unassigned) [Example 82] | 30 to 500 | < 64 | > 128 | 32 to 64 | < 10 | 32 to 64 | – |
| CN1CCN(C(=O)NC(C(=O)N[C@H]2Cc3cccc(C(=O)O)c3OB2O)c2csc(N)n2)C(=O)C1=O (stereo partly drawn) [Example 43, (3R)-3-(2-(2-aminothiazol-4-yl)-2-(4-methyl-2,3-dioxopiperazine-1-carboxamido)acetamido)-2-hydroxy-3,4-dihydro-2H-benzo[e][1,2]oxaborinine-8-carboxylic acid] | 30 to 500 | < 64 | 64 to 128 | 32 to 64 | > 100 | 32 to 64 | – |
| CCN1CCN(C(=O)NC(C(=O)N[C@H]2Cc3cc(OC)cc(C(=O)O)c3OB2O)c2csc(N)n2)C(=O)C1=O (stereo partly drawn) [Example 38, (3R)-3-(2-(2-aminothiazol-4-yl)-2-(4-ethyl-2,3-dioxopiperazine-1-carboxamido)acetamido)-2-hydroxy-6-methoxy-3,4-dihydro-2H-benzo[e][1,2]oxaborinine-8-carboxylic acid] | > 500 | < 64 | 64 to 128 | 32 to 64 | < 10 | 32 to 64 | – |
